“And” between values parts separate entries of the source, which are not always exact repeats. Equal values may be shown once.
Key:
[1] = test system: cross-bred pigs (Yorkshire×Landrace); test: Fasting and postprandial plasma lipid profiles and postprandial insulin in STZ diabetic pigs; format: in vivo, pig
Experimental: Fasting blood samples were taken before the start of hyperinsulinemic clamp experiments and postprandial blood samples were taken two to three hours after a morning meal in the week following a clamp study.
Blood samples for determination of triglycerides and non-esterified fatty acids (NEFA) were collected in tubes containing EDTA (0.47 mol/L EDTA, 10 mL Venoject, Terumo, Leuven, Belgium) and immediately chilled at 0° C. on ice, and centrifuged at 4° C. for ten minutes at 3000 rpm. Plasma was stored, at −20° C. in four aliquots of 0.5 mL for further analyses.
Concentrations of triglycerides, cholesterol and NEFA were measured using commercially available test kits (Boehringer Mannheim, Mannheim Germany; Human, Wiesbaden, Germany; and Wako Chemicals, Neuss, Germany, respectively).

[2] = test system: cross-bred pigs (Yorkshire×Landrace); test: Induction of diabetes by streptozotocin infusion in pigs: fasting plasma glucose, food intake, urinary glucose and ketones; format: in vivo, pig
Experimental: Experimental protocols describing the management, surgical procedures, and animal care were reviewed and approved by the ASG-Lelystad Animal Care and Use Committee (Lelystad, NL). Thirty-six cross-bred pigs (Yorkshire×Landrace) of approximately 30 kg BW at surgery were used in this study. Two weeks before surgery, the pigs were housed in metabolism cages (1.15×1.35 m) and adapted to the fight/dark cycle and the feeding regimen. Lights were on and off at 05:00 and 22:00 hours, respectively. Ambient room temperature was 20° C.
STZ (Pharmacia & Upjohn Company, Kalamazoo, Mich., USA) was dissolved in saline (1 g/10 mL) and administrated to pigs via the jugular vein by a continuous infusion over 30 minutes. STZ treatment (110, 130 or 150 mg/kg) was initiated four to five hours after the morning meal. During the first three days after STZ treatment, food was offered ad libitum in order to avoid hypoglycemia (Gäbel et al., 1985; Grussner et al., 1993). Over the following four days, the food was offered still ad libitum but now from 06:00 to 7:00 and from 15:00 to 16:00 hours to evaluate the food intake capacity in relation to 24-hour urinary glucose excretion of diabetic pigs. This was done first, to be sure that diabetic pigs consume their meals at the iso-energetic level of 1045 kJ ME/kg BW^0.75 per day and second, to underline the importance of iso-energetic feeding when 24-hour urinary glucose excretion is used as one of the parameters to quantify the efficacy of metformin in diabetic pigs. On day 8 post-STZ treatment, pigs were fed on a restricted and iso-energetic level of 1045 kJ ME/kg BW^0.75 per day throughout the study.
Plasma insulin concentration was measured using a Delfia assay (test kit No. B080-1101 by Perkin Elmer Life Sciences, trust by Wallac Oy, Turku, Finland). This specific pig insulin assay was validated using pig insulin standards. Plasma and urine glucose concentrations were analyzed enzymically on an autoanalyzer of Radiometer (ABL and AML, Copenhagen, Denmark). Urine was collected in buckets containing 0.5 grams Halamid-d (sodium-p-toluenesulfonchloramide, Akzo Nobel Chemicals, Amersfoort, NL) to prevent microbial breakdown of glucose. Urine volume was registered over a given interval in order to calculate the rate of urinary glucose excretion. Urine samples (0.5 mL) were stored at −20° C. for later glucose analyses. Ketones (acetoacetic acid) were determined in fresh urine by a reagent strip test (Ketostix, Bayer Diagnostics, Mijdrecht, NL).

[3] = pigs, STZ 130 mg/kg, two to three hours after morning meal

CN(N=O)C(=O)N[C@H]1C(O)O[C@H](CO)[C@@H](O)[C@@H]1O (mixture of isomers) [STZ, streptozotocin]
Postprandial plasma insulin ([1]; STZ diabetic pigs, two to three hours after feeding, detection limit): ~1 mU/L
Fasting cholesterol and NEFA concentrations compared to normal pigs ([1]; pigs, STZ 130 mg/kg): did not differ
Fasting plasma NEFA ([1]; pigs, STZ 130 mg/kg): 0.9 ± 0.3 mmol/L
Fasting plasma cholesterol ([1]; pigs, STZ 130 mg/kg): 2.1 ± 0.2 mmol/L
Fasting plasma triglyceride elevation compared to normal pigs ([1]; pigs, STZ 130 mg/kg): five-fold
Fasting plasma triglycerides ([1]; pigs, STZ 130 mg/kg): 1.0 mmol/L and 1.0 ± 0.3 mmol/L
Postprandial plasma NEFA elevation compared to normal pigs ([1]; pigs, STZ 130 mg/kg): seven-fold
Postprandial plasma cholesterol elevation compared to normal pigs ([1]; pigs, STZ 130 mg/kg): 1.3 fold
Postprandial plasma triglycerides elevation compared to normal pigs ([1]; pigs, STZ 130 mg/kg): four-fold
Postprandial plasma NEFA [1, 3]: 1.5 ± 0.5 mmol/L
Postprandial plasma cholesterol [1, 3]: 2.3 ± 0.2 mmol/L
Postprandial plasma trigylcerides [1, 3]: 1.2 mmol/L and 1.2 ± 0.3 mmol/L
Pigs with overnight fasting plasma glucose <10 mmol/L (no fasting hyperglycemia) ([2]; STZ 110 mg/kg BW, one week post STZ): two of six
Diabetic state ([2]; STZ 130 mg/kg): non-ketotic, moderately dyslipidemic, developed severe insulin resistance for glucose metabolism, maintained growth without insulin therapy
Pigs with fasting hyperglycemia (>10 mmol/L) ([2]; STZ 130 mg/kg): 20 of 23
Pigs with overnight fasting plasma glucose <10 mmol/L ([2]; STZ 130 mg/kg BW, one week post STZ): three of 23
Overnight fasting plasma glucose ([2]; STZ 150 mg/kg BW, all six pigs, one week post STZ): > 20 mmol/L
Diabetic state ([2]; STZ 150 mg/kg, all pigs): clear hyperglycemic, hypoinsulinemic, and ketotic diabetic state
Fasting urinary glucose excretion (factual) ([2]; STZ diabetic pigs fasted overnight, urine collected for eight hours): 2.3 ± 0.2 mg/kg/min and 2.3 mg/kg/min
Ketones in urine ([2]; STZ dose of 110 and 130 mg/kg, trace = 0.5 mmol/L): no or trace
Predicted fasting urinary glucose excretion ([2]; from intercept of linear regression and average body weight): 2.6 mg/kg/min
Fasting 24-hour urinary glucose excretion (intercept of regression) ([2]; linear regression y=0.33x+141): 141 g per day

Reference: patent US20070271620A1, “Animal model for type II diabetes mellitus and Syndrome X and methods and uses thereof” (priority 2005, published 2007)
